Laboratory results from patent US9061984B2 (University of Louisville Research Foundation, Inc., priority 2008, dated 2015).
In brackets after ≈: the same amount, converted by molar mass. Read-outs that look alike come from different tables or passages of the source.

What was measured:
[1] = system: Trypanosoma cruzi (Tulahuen C4); assay: In vitro anti-T. cruzi activity (β-galactosidase CPRG colorimetric assay in VERO monolayer); type: cell-based; details: for inhibition at 10 µg/mL / IC50: Trypanosoma cruzi, TULAHUEN, Vero; for inhibition at 10 µg/mL: 120 h, 10 μg/mL of each compound, 120 hours, read-out: T. cruzi Inhib. (%); for IC50: Table 3, read-out: IC50 T. cruzi
[2] = system: axenic amastigotes of L. amazonensis (strain MHOM/BR/76/LTB-012); assay: microbe, parasite or virus in culture; details: Leishmania amazonensis
[3] = system: peritoneal macrophages; assay: Toxicity to peritoneal macrophages (Trypan Blue count); type: cell-based, BALB/C mouse
Experimental: (§1) Peritoneal macrophages were prepared as follows. Non-inflammatory macrophages (10^6) were collected from each BALB/C mouse. The cells adhered at 37° C. after 2 h under 5% CO2 in a CO2 incubator. The plates were then rinsed two to three times with 0.5 mL of RPMI+buffer MOPS without fetal calf serum to eliminate non-adhering cells. The supernatant on the plates was replaced by fresh medium (RPMI+glutamine+FCS+antibiotics), 0.5 mL of medium per well. To determine the toxicity of the compounds to macrophages, dilutions of compounds were added on a part of the macrophages prepared above. […] The medium was then removed and 1 μL of sterile Trypan Blue was added. Cover glasses N° 1 were left where cells were plated and then the number of macrophages in a microscope was determined with a haemocytometer. All experiments were performed in triplicate.

[4] = system: 3T3 cells; assay: Cell growth inhibition bioassay (sulforhodamine B); type: cell-based, mouse; details: 48 h, SRB; for GI50: Mus musculus, NIH3T3, read-out: GI50 in indicated cell line: 3T3
Experimental: (§2) The cytotoxicity of compounds was assayed as follows. […] Appropriate solvent controls were tested for comparison. The percent inhibition of cell growth relative to the control was evaluated colorimetrically using a sulforhodamine B dye by comparison to the control. The calorimetric procedure followed that published in Skehan et al., J. Nat. Cancer Inst., […], pp. 1107-1112 (1990) and Boyd & Paull, Drug Dev. Res., Vol. 34, pp. 91-109 (1995). […] The cell lines are: 3T3 cells are BALB/3T3 clone A31 embryonic mouse fibroblast cells; H460 cells are human large cell lung cancer cells; DU145 cells are human prostate carcinoma cells; MCF-7 cells are human breast adenocarcinoma cells; M-14 cells are human melanoma cells; HT-29 cells are human colon adenocarcinoma cells; PC3 cells are human prostate adenocarcinoma cells; K562 cells are human chronic myelogenous leukemia cells; and VERO cells are African Green Monkey kidney epithelial cells.

[5] = system: DU145 cells; assay: Cell growth inhibition bioassay (sulforhodamine B); type: cell-based, human; details: 48 h, SRB; for GI50: Homo sapiens, DU-145, read-out: GI50 in indicated cell line: DU145
Experimental: as §2

[6] = system: H460 cells; assay: Cell growth inhibition bioassay (sulforhodamine B); type: cell-based, human; details: 48 h, SRB; for GI50: Homo sapiens, NCI-H460, read-out: GI50 in indicated cell line: H460
Experimental: as §2

[7] = system: HT-29 cells; assay: Cell growth inhibition bioassay (sulforhodamine B); type: cell-based, human; details: 48 h, SRB; for GI50: Homo sapiens, HT-29, read-out: GI50 in indicated cell line: HT-29
Experimental: as §2

[8] = system: K562 cells; assay: Cell growth inhibition bioassay (sulforhodamine B); type: cell-based, human; details: 48 h, SRB; for GI50: Homo sapiens, K562, read-out: GI50 in indicated cell line: K562
Experimental: as §2

[9] = system: M-14 cells; assay: Cell growth inhibition bioassay (sulforhodamine B); type: cell-based, human; details: 48 h, SRB; for GI50: Homo sapiens, M14, read-out: GI50 in indicated cell line: M-14
Experimental: as §2

[10] = system: MCF-7 cells; assay: Cell growth inhibition bioassay (sulforhodamine B); type: cell-based, human; details: 48 h, SRB; for GI50: Homo sapiens, MCF7, read-out: GI50 in indicated cell line: MCF-7
Experimental: as §2

[11] = system: VERO cells; assay: Cell growth inhibition bioassay (sulforhodamine B); type: cell-based, African Green Monkey; details: 48 h, SRB; for GI50: Chlorocebus sabaeus, Vero, read-out: GI50 in indicated cell line: VERO
Experimental: as §2

[12] = system: M. tuberculosis H37Rv; assay: Conventional aerobic (MABA) culture assay, luminescence MIC; type: cell-based, Mycobacterium tuberculosis; details: aerobic, 7 days, H37Rv; for MIC: Mycobacterium tuberculosis, 168 h
[13] = Toxicity to peritoneal macrophages (Trypan Blue count); type: cell-based, BALB/C mouse; details: BALB/C, mouse, Cytotoxicity Macrophages IC50
Experimental: as §1

[14] = system: axenic amastigotes of L. amazonensis (strain MHOM/BR/76/LTB-012); details: Table 8b; for IC50: read-out: L. amazonensis IC50
[15] = system: L. amazonensis; details: intralesional, compounds 5 mg/kg/day; for Mean lesion size (mm) / Mean parasite quantification (per 10^6) in lesion per mg (±SD) / Mean lesion wt (mg) (±SD) / % Variation of lesion wt / % reduction of parasite burden in the lesion: Glucantime 33 mg Sb(v)/kg/day; for Mean lesion wt (mg) (±SD): BALB/c mice n=10; for % Variation of lesion wt / % reduction of parasite burden in the lesion: vs control
[16] = 72 h, read-out: IC50 L. amazonensis
[17] = Mus musculus, Peritoneal macrophage, 48 h, Table 7, read-out: IC50 Macrophage

## C=CCOc1cc(OC)c(C(=O)/C=C/c2ccc(O)c(OC)c2)c(OCC=C)c1 [Compound I-18, (2E)-1-[2-Methoxy-4,6-bis(2-propenyloxy)phenyl]-3-(3-methoxy-4-hydroxyphenyl)-2-propen-1-one]
[1]
  inhibition at 10 µg/mL: 27.9%
  IC50: > 25 µM
[2]; [16]
  IC50: 107 µM

## C=CCOc1cc(OC)c(C(=O)/C=C/C=C/c2ccccc2)c(OCC=C)c1 [Compound I-21, (2E,4E)-1-[2-Methoxy-4,6-bis(2-propenyloxy)phenyl]-5-phenyl-2,4-pentadien-1-one]
[1]
  inhibition at 10 µg/mL: 47.7%
  IC50: > 25 µM
[2]; [16]
  IC50: 75.2 µM

## C=CCOc1cc(OC)c(C(=O)/C=C/c2ccc[nH]2)c(OCC=C)c1 [Compound I-22, (2E)-3-(1H-pyrrol-2-yl)-1-[2-methoxy-4,6-bis(2-propenyloxy)phenyl]-2-propen-1-one]
[1]
  inhibition at 10 µg/mL: 1.25%
  IC50: > 100 µM
[2]; [16]
  IC50: 94.3 µM

## COc1cc(O)cc(O)c1C(=O)/C=C/c1ccccc1 [Compound I-29, (2E)-1-(2,4-Dihydroxy-6-methoxyphenyl)-3-(phenyl)-2-propen-1-one]
[3]; [17]
  IC50: 27 µM
[2]; [16]
  IC50: 15.9 µM

## COc1cc(O)cc(O)c1C(=O)/C=C/c1ccc(O)cc1 [Compound I-30, (2E)-1-(2,4-Dihydroxy-6-methoxyphenyl)-3-(4-hydroxyphenyl)-2-propen-1-one]
[3]; [17]
  IC50: 21.7 µM
[2]; [16]
  IC50: 15.7 µM

## COc1cccc(/C=C/C(=O)c2c(O)cc(O)cc2OC)c1 [Compound I-31, (2E)-1-(2,4-Dihydroxy-6-methoxyphenyl)-3-(3-methoxyphenyl)-2-propen-1-one]
[3]; [17]
  IC50: 17.6 µM
[2]; [16]
  IC50: 12 µM

## COc1cc(O)cc(O)c1C(=O)/C=C/c1ccc(C(F)(F)F)cc1 [Compound I-32, (2E)-1-(2,4-Dihydroxy-6-methoxyphenyl)-3-[4-(trifluoromethyl)phenyl]-2-propen-1-one]
[3]; [17]
  IC50: 17.1 µM
[2]; [16]
  IC50: 8.6 µM

## COc1cc(O)cc(O)c1C(=O)/C=C/c1ccc(Cl)cc1 [Compound I-33, (2E)-3-(4-Chlorophenyl)-1-(2,4-dihydroxy-6-methoxyphenyl)-2-propen-1-one]
[3]; [17]
  IC50: 19 µM
[2]; [16]
  IC50: 11.2 µM

## COc1cc(O)cc(O)c1C(=O)/C=C/c1ccccc1F [Compound I-34, (2E)-1-(2,4-Dihydroxy-6-methoxyphenyl)-3-(2-fluorophenyl)-2-propen-1-one]
[3]; [17]
  IC50: 16 µM
[2]; [16]
  IC50: 11.8 µM

## COc1cc(O)cc(O)c1C(=O)/C=C/c1ccccc1Br [Compound I-35, (2E)-3-(2-Bromophenyl)-1-(2,4-dihydroxy-6-methoxyphenyl)-2-propen-1-one]
[3]; [17]
  IC50: 14.6 µM
[2]; [16]
  IC50: 10.6 µM

## COc1cc(/C=C/C(=O)c2c(O)cc(O)cc2OC)ccc1O [Compound I-37, (2E)-1-(2,4-Dihydroxy-6-methoxyphenyl)-3-(3-methoxy-4-hydroxyphenyl)-2-propen-1-one]
[2]; [16]
  IC50: 14.9 µM

## COc1cc(/C=C/C(=O)c2c(O)cc(O)cc2OC)cc(OC)c1OC [Compound I-38, (2E)-1-(2,4-Dihydroxy-6-methoxyphenyl)-3-(3,4,5-trimethoxydroxyphenyl)-2-propen-1-one]
[2]; [16]
  IC50: 9.7 µM

## COc1cc(O)cc(O)c1C(=O)/C=C/C=C/c1ccccc1 [Compound I-39, (2E,4E)-1-(2,4-Dihydroxy-6-methoxyphenyl)-5-phenyl-2,4-pentadien-1-one]
[2]; [16]
  IC50: 52.6 µM

## COc1cc(O)cc(O)c1C(=O)/C=C/c1ccc(F)cc1 [Compound I-40, (2E)-1-(2,4-Dihydroxy-6-methoxyphenyl)-3-(4-fluorophenyl)-2-propen-1-one]
[3]; [17]
  IC50: 28.8 µM
[2]; [16]
  IC50: 11.8 µM

## COc1cc(O)cc(O)c1C(=O)/C=C/c1ccc(C)cc1 [Compound I-41, (2E)-1-(2,4-Dihydroxy-6-methoxyphenyl)-3-(4-methylphenyl)-2-propen-1-one]
[3]; [17]
  IC50: 16.5 µM
[2]; [16]
  IC50: 7.4 µM

## C(=N/Nc1ncnc2sc3c(c12)CCCC3)/c1ccncc1 [II-20]
[4]
  GI50: 25.7 µg/mL (≈ 83.1 µM)
[5]
  GI50: 26 µg/mL (≈ 84 µM)
[6]
  GI50: 52.4 µg/mL (≈ 169 µM)
[7]
  GI50: 47.3 µg/mL (≈ 153 µM)
[8]
  GI50: 33.8 µg/mL (≈ 109 µM)
[9]
  GI50: > 62.5 µg/mL
[10]
  GI50: 26 µg/mL (≈ 84 µM)
[11]
  GI50: 38.3 µg/mL (≈ 124 µM)
[12]
  MIC: > 100 µg/mL
[13]
  IC50 at 48 h: 47.7 µM
[14]
  Selectivity Index: 0.7
[2]; read-out: L. amazonensis IC50
  IC50: 72 µM

## O=[N+]([O-])c1ccccc1C=NNc1ncnc2sc3c(c12)CCCC3 [II-23]
[4]
  GI50 in indicated cell line: 3T3: >62.5 µg/mL
[5]
  GI50 in indicated cell line: DU145: 36.4 µg/mL (≈ 103 µM)
[6]
  GI50 in indicated cell line: H460: 18.7 µg/mL (≈ 52.9 µM)
[7]
  GI50 in indicated cell line: HT-29: 70.5 µg/mL (≈ 199 µM)
[8]
  GI50 in indicated cell line: K562: 61.6 µg/mL (≈ 174 µM)
[9]
  GI50 in indicated cell line: M-14: 58.9 µg/mL (≈ 167 µM)
[10]
  GI50 in indicated cell line: MCF-7: 18.4 µg/mL (≈ 52.1 µM)
[11]
  GI50 in indicated cell line: VERO: >62.5 µg/mL
[1]; Lab A
  T. cruzi IC50 Lab A: 1.1 µg/mL
[12]
  MIC MABA: >100 µg/mL
[3]
  IC50: > 100 µM
[14]
  IC50: 38.1 µM

## N#Cc1ccc(C=NNc2ncnc3sc4c(c23)CCCC4)cc1 [II-32]
[4]
  GI50 in indicated cell line: 3T3: 50.1 µg/mL (≈ 150 µM)
[5]
  GI50 in indicated cell line: DU145: >62.5 µg/mL
[6]
  GI50 in indicated cell line: H460: >62.5 µg/mL
[7]
  GI50 in indicated cell line: HT-29: >62.5 µg/mL
[8]
  GI50 in indicated cell line: K562: >62.5 µg/mL
[9]
  GI50 in indicated cell line: M-14: >62.5 µg/mL
[10]
  GI50 in indicated cell line: MCF-7: 33.9 µg/mL (≈ 102 µM)
[11]
  GI50 in indicated cell line: VERO: >62.5 µg/mL
[12]
  MIC MABA: >100 µg/mL
[3]
  IC50: 53.9 µM
[14]
  IC50: 10.8 µM

## c1ccc(C(=NNc2ncnc3sc4c(c23)CCCC4)c2ccccc2)cc1 [II-49]
[4]
  GI50: > 62.5 µg/mL
[5]
  GI50: > 62.5 µg/mL
[6]
  GI50: > 62.5 µg/mL
[7]
  GI50: > 62.5 µg/mL
[8]
  GI50: > 62.5 µg/mL
[9]
  GI50: > 62.5 µg/mL
[10]
  GI50: > 62.5 µg/mL
[11]
  GI50: > 62.5 µg/mL
[12]
  MIC: > 100 µg/mL
[13]
  IC50 at 48 h: 59.8 µM
[14]
  Selectivity Index: 0.9
[2]; read-out: L. amazonensis IC50
  IC50: 70.1 µM

## N-methylglucamine antimoniate [Glucantime, reference compound]
[15]; after 4 weeks treatment
  Mean lesion size (mm): 2.1 mm
  Mean parasite quantification (per 10^6) in lesion per mg (±SD): 0 (0) amastigotes (×10^6)/mg
  Mean lesion wt (mg) (±SD): 5.6 (±0.4) mg
  % Variation of lesion wt: 91%
  % reduction of parasite burden in the lesion: 100%
[15]; after 7 weeks treatment
  Mean lesion size (mm): 2.2 mm
  Mean parasite quantification (per 10^6) in lesion per mg (±SD): 0 (0) amastigotes (×10^6)/mg
  Mean lesion wt (mg) (±SD): 13.5 (±2.9) mg
  % Variation of lesion wt: 85%
  % reduction of parasite burden in the lesion: 100%
[15]; Glucantime 33 mg/kg/day
  Lesion diameter: 2.2 mm
[15]; Glucantime 33 mg/kg/day, after 4 weeks
  Reduction of parasite burden After 4 weeks: 100%
[15]; Glucantime 33 mg/kg/day, after 7 weeks
  Reduction of parasite burden After 7 weeks: 100%
